Laboratory results taken from US7462592B2, “Compositions and methods for polynucleotide delivery” (Novartis Vaccines and Diagnostics, Inc., priority 1996, dated 2008).

Key:
HT1080 and 293 cells = test: Effect of chloroquine on transfection (FIG. 9); type: cell-based, human; details: presence or absence of chloroquine
Experimental: FIG. 9 illustrates the effect of chloroquine on transfection with RZ145-1 in (A) 293 cells and (B) HT1080 cells. The cells were transfected in the presence (black bar) or absence (stippled bar) of 100 uM chloroquine. Cells were lysed 48 hours post transfection and luciferase activity and total protein content were measured.
To determine whether chloroquine affected transfection mediated by polycationic agents of the present invention, HT1080 and 293 cells were transfected using RZ145-1 in the presence and absence of chloroquine. As a control, the same cell lines were transfected with polylysine both in the presence and absence of chloroquine. […] In contrast, polylysine-mediated transfection in the absence of chloroquine was 100-fold lower than polylysine mediated transfection in the presence of chloroquine.

[1] = Coulter N4MD submicron analyzer; Lee et al., 1996; cited from earlier work

polylysine [reference compound]
transfection in the absence of chloroquine relative to presence of chloroquine, fold lower (HT1080 and 293 cells): 100 fold | mean diameter of particles of condensed polynucleotide [1]: 50-200 nm
